Assay results: PMC4015961, “New colorimetric screening assays for the directed evolution of fungal laccases to improve the conversion of plant biomass” (BMC Biotechnology, 2013)
Like-named read-outs stand apart in the source and are kept apart here. Each block holds one compound with its values, some of them ahead of it.

Columns and labels:
[1] = system: T1, Trametes villosa laccase (TvL); details: sodium tartrate pH 4.0; crude commercial enzyme
T1 construct: gene LCC1

[2] = biological target: T2, R2 LRPL (Thermothelomyces thermophilus, UniProt G2QG31); assay: endpoint absorbance increase at […] nm; type: biochemical; details: 2 mM acetosyringone; tartrate pH 4.0; yeast supernatant
T2 construct: gene lcc1; secreted by S. cerevisiae, crude supernatant
T2 sequence (G2QG31 entry or part of it): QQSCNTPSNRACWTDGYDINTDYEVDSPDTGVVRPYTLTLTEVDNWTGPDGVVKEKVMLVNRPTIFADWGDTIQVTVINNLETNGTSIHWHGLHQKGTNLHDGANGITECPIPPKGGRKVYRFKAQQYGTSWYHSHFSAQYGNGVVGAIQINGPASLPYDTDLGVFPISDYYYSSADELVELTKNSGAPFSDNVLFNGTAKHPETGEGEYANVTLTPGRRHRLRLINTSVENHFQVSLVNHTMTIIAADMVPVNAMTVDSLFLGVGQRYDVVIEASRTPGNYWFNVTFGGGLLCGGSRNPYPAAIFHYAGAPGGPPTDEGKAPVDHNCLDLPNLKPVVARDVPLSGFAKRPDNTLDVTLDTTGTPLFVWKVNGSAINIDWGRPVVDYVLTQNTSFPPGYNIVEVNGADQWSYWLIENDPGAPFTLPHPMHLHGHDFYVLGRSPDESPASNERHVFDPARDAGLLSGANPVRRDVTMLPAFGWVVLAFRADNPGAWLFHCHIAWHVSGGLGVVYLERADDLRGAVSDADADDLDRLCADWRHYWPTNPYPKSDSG

[3] = biological target: T2, R2 LRPL; assay: endpoint absorbance increase at […] nm; type: biochemical; details: 250 μM sinapic acid; tartrate pH 4.0; yeast supernatant
[4] = system: T3, Trametes villosa laccase (TvL); assay: absorbance increase at […] nm; type: biochemical; details: sodium tartrate pH 4.0; crude commercial enzyme
T3 construct: gene LCC1; crude commercial laccase preparation, Novozymes

[5] = system: T3, Trametes villosa laccase (TvL); assay: absorbance increase at […] nm; type: biochemical; details: sodium tartrate pH 4.0; crude commercial enzyme; assigned by order of preceding sentence and Figure 2A-C

- Km [1]: 93 µM
Structure (SMILES): COc1cc(C(C)=O)cc(OC)c1O [acetosyringone, 3′,5′-dimethoxy-4′-hydroxyacetophenone]
- endpoint absorbance increase at 520 nm [2]: colored responses were linear (absorbance increased with increasing volumes of supernatant) with both laccases

- Km [4]: 85 µM
Structure (SMILES): COc1cc(/C=C/C(=O)O)cc(OC)c1O [sinapic acid]
- endpoint absorbance increase at 512 nm [3]: colored responses were linear (absorbance increased with increasing volumes of supernatant) with both laccases

- Km [5]: 120 µM
Structure (SMILES): COc1cc(C=O)cc(OC)c1O [syringaldehyde, 3,5-dimethoxy-4-hydroxybenzaldehyde]
